Experimental data published in patent US20080161258A1, “Hsp and Supraventricular Arrhythmia” (priority 2004, published 2008).
“Also recorded” adds a separate entry of the source.

Key:
[1] = system: HL-1 cells; assay: Calcium transients and cell shortening in tachypaced HL-1 cells; type: cell-based, mouse
Experimental: In addition to myolysis, we studied the effects of short-term tachypacing of HL-1 cells (3 Hz for 2, 3 and 4 hrs) on Ca^2+ transients (CaTs) and cell shortening (CS) in HL-1 cells, with and without pre-treatment to induce HSP expression: the heat shock stress response inducer geranylgeranylacetone (GGA, 10 μM) or heat shock at 43° C. for 20 minutes (HS) or transient transfection with human HSP27 (pHSP27). In brief, myocytes were field-stimulated with 10-ms twice-threshold strength square-wave pulses. CS was measured with a video edge-detector connected to a charge-coupled device. To record CaTs, myocytes were incubated with indo-1 AM (5-μM) for 5-7 min. Myocytes were then superfused at room temperature for at least 40 min to wash out extracellular indicator and to allow for deesterification. Background and cell autofluorescence were cancelled by zeroing the photomultiplier output in a cell without indo-1 loading. Ultraviolet light from a 100-W mercury arc lamp passing through a 340-nm interference filter (±10 nm bandwidth) was reflected by a dichroic mirror into a ×40 oil-immersion fluor objective for excitation of intracellular indo-1 (excitation beam ˜15 μm diameter). Exposure of the cell to UV light (5-10 of every 30-60 s) was controlled by an electronic shutter (Optikon, model T132) to minimize photobleaching. Emitted light (<550 nm) was reflected into a spectral separator, passed through parallel filters at 400 and 500 nm (+10 nm), detected by matched photomultiplier-tubes (Hamamatsu R2560 HA) and electronically filtered at 60 Hz. The ratio of fluorescence signals (R400/500) was digitized (1 kHz) and used as the index of [Ca^2+]i^(48).

[2] = system: HL-1 cells; assay: Calcium current density (ICa++) in paced HL-1 cells; type: cell-based, mouse; conditions: HL-1 cells paced for 4 h; GGA two hours prior to and during pacing; FIG. 5
Experimental: I-V relationships of peak ICα++ in non-paced (CON) and paced (PC) HL-1 cells. ICα++ was recorded using 300-ms voltage steps to between −70 and +70 mV from −80 mV.

[3] = system: dogs subjected to atrial tachypacing; assay: Atrial tachycardia-induced remodeling in dogs (atrial tachypacing); type: in vivo, dog; conditions: ATP 400 bpm for 7 days
Experimental: The effect of HSP induction on in vivo AF-promotion was examined studying the effect of GGA on atrial tachycardia-induced remodeling in dogs (49). Dogs were subjected to atrial tachypacing (ATP) at 400 bpm for 7 days in the absence (ATP, n=5) and presence of oral GGA treatment (120 mg/kg/day, n=3), starting 3 days prior to ATP onset and continued throughout ATP. Results were compared to a non-paced control group (NP, n=5 dogs). Mongrel dogs (20 to 37 kg) were anesthetized with ketamine (5.3 mg/kg IV), diazepam (0.25 mg/kg IV), and halothane (1.5%). Unipolar leads were inserted through jugular veins into the right ventricular (RV) apex and right atrial (RA) appendage and connected to pacemakers (Medtronic) in subcutaneous pockets in the neck. A bipolar electrode was inserted into the RA for stimulation and recording during serial electrophysiological study (EPS). AV block was created by radiofrequency ablation to control ventricular response during atrial tachypacing (ATP). The RV pacemaker was programmed to 80 bpm. For open-chest EPS, dogs were anesthetized with morphine (2 mg/kg SC) and α-chloralose (120 mg/kg IV, followed by 29.25 mg·kg^−1·h^−1), and ventilated mechanically. Body temperature was maintained at 37° C., and a femoral artery and both femoral veins were cannulated for pressure monitoring and drug administration. A median sternotomy was performed, and bipolar electrodes were hooked to the RA and left atrial (LA) appendages for recording and stimulation. A programmable stimulator (Digital Cardiovascular Instruments) was used to deliver twice-threshold currents. Five silicon sheets containing 240 bipolar electrodes were sutured onto the atrial surfaces as previously described.^6-8http://circ.ahajournals.org/cgi/content/full/110/16/2313-R7-155347http://circ.ahajournals.org/cgi/content/full/110/16/2313-R8-155347 Atrial effective refractory periods (ERPs) were measured at multiple basic cycle lengths (BCLs) in the RA and LA appendages. AF vulnerability was determined as the percentage of atrial sites at which AF could be induced by single extrastimuli. After 24 hours for recovery, a baseline closed-chest EPS was performed under ketamine/diazepam/isoflurane anesthesia, and then ATP (400 bpm) was initiated. Closed-chest EPS was repeated at day 7 of ATP, and a final open-chest EPS was performed under morphine/α-chloralose anesthesia.

[4] = system: HSP27 and HSP70 expression in HL-1 myocytes; assay: HSP expression in paced HL-1 myocytes (Western blot); type: cell-based, mouse; conditions: 0.1 μM GGA two hours prior to and during pacing, FIG. 3A
Experimental: (§1) The HL-1 atrial myocytes, developed from adult mouse atria^29 were obtained from Dr. William Claycomb (Louisiana State University, New Orleans, La., USA) and cultured as described before.^28
HL-1 myocytes (≧1×10^6 myocytes) were cultured on coverslips and subjected to a 10-fold rate increase (rapid pacing) by electrical field stimulation (5 Hz, 1.5 V/cm field strength; Grass S88 stimulator).^28 Elevation of HSP expression in cultured myocytes was accomplished in 3 ways: (I) by subjection to a modest heat stress at 43° C. for 30 min followed by overnight incubation at 37° C., (II) by incubation with 0.1 μM geranylgeranylacetone (GGA, gift from M. Kawai, Japan) two hours prior to and during pacing and (III) by transfection of pHSP70-YFP or pHSP27 24 hrs prior to pacing.
For Western-blot analysis, frozen RAAs and LAAs were used for protein isolation as described previously.^6 For the isolation of proteins from HL-1 myocytes, the cells were lysed by the addition of SDS-PAGE sample buffer followed by sonication before separation on 10% PAA-SDS gels (1.10^5 cells/slot). […] Signals were detected by the ECL-detection method (Amersham, The Netherlands) and quantified by densitometry. […]

[5] = system: HL-1 myocytes; assay: Pacing-induced myolysis in HL-1 myocytes (myosin immunofluorescence); type: cell-based, mouse
Source text: as §1
Lipofectamine (Life technologies, The Netherlands) was used for transient transfections according to instructions of the manufacturer. pHSP70-YFP encodes a functional human HSP70 fused to YFP under control of a CMV promoter. pHSP27 encodes human HSP27 under control of CMV promoter. […]
After subjecting HL-1 myocytes to rapid pacing, the cells were fixed for 10 minutes in 100% methanol (−20° C.), dried and blocked in 5% BSA (20 minutes room temperature). […] Images of FITC, YFP or CY3 and DAPI fluorescence were obtained by using a Leica confocal laser-scanning microscope (Leica TCS SP2).
For the quantification of the amount of myolysis, at least 5 fields were examined with to a total amount of 250-500 myocytes, and myosin disruption (characteristic for myolysis^12) was scored by three independent observers blinded for the experimental groups. […]

Substance: geranylgeranylacetone [GGA]
- pacing-induced CaT and CS reductions ([1]; HL-1 cells tachypaced 3 Hz for 2, 3 and 4 hrs, GGA 10 μM or transient transfection with pHSP27): significantly prevented
- reduction of Ca2+ transients (CaT) after pacing ([1]; HL-1 cells, 3 Hz, 2 hrs pacing, GGA 10 μM, p=0.01 vs tachypaced without GGA): 2%±6%
- reduction of cell-shortening (CS) after pacing ([1]; HL-1 cells, 3 Hz, 2 hrs pacing, GGA 10 μM, p=0.03 vs tachypaced without GGA): 11%±3%
- pacing-induced reduction of calcium current density (Ica++) [2]: the reduction was prevented; also recorded: strongly
- ATP-induced changes (DAF, ERP, vulnerability) ([3]; oral GGA 120 mg/kg/day): almost completely suppressed
- duration of induced AF (DAF) ([3]; oral GGA 120 mg/kg/day starting 3 days prior to ATP, p<0.05 vs ATP): 39 ± 15 s
- atrial effective refractory period (ERP) ([3]; oral GGA 120 mg/kg/day, basic cycle length 300 ms, p<0.05 vs ATP): 102 ± 3 ms
- atrial vulnerability to AF (% of atrial sites in which AF was induced by a single extra stimulus) ([3]; oral GGA 120 mg/kg/day, p<0.05 vs ATP): 13±7%
- HSP27 expression [4]: substantial elevations; also recorded: induces the expression
- HSP70 expression [4]: substantial elevations; also recorded: induces the expression
- Immunofluorescent staining of myosin in paced myocytes ([5]; 16 hrs paced HL-1 myocytes, FIG. 3B): myosin-staining remains diffusely distributed in the cytoplasm
- pacing-induced myolysis ([5]; HL-1 myocytes, rapid pacing 5 Hz, GGA 0.1 μM two hours prior to and during pacing, or transfection 24 hrs prior to pacing): significant reduction
